According to ChEMBL document CHEMBL1201862, “PubChem BioAssay data set” (2004):
Blank lines part the entries; values can stand above or below the compound they belong to. Calls of active or inactive are those of the source.

Experiments:
[1] = target: Broad substrate specificity ATP-binding cassette transporter ABCG2 (Homo sapiens, UniProt Q9UNQ0); assay: ABCG2 efflux pump inhibitors, dose response, Ig-MXP3 cells, flow cytometry (AID 1690); assay type: functional
[2] = target: T1, Tyrosine-protein phosphatase non-receptor type 22 (Homo sapiens, UniProt Q9Y2R2); assay: PTPN22 phosphatase inhibition, dose response, selectivity assay for STEP inhibitor project, biochemical (AID 624241); assay type: functional
T1 sequence (Q9Y2R2 whole entry): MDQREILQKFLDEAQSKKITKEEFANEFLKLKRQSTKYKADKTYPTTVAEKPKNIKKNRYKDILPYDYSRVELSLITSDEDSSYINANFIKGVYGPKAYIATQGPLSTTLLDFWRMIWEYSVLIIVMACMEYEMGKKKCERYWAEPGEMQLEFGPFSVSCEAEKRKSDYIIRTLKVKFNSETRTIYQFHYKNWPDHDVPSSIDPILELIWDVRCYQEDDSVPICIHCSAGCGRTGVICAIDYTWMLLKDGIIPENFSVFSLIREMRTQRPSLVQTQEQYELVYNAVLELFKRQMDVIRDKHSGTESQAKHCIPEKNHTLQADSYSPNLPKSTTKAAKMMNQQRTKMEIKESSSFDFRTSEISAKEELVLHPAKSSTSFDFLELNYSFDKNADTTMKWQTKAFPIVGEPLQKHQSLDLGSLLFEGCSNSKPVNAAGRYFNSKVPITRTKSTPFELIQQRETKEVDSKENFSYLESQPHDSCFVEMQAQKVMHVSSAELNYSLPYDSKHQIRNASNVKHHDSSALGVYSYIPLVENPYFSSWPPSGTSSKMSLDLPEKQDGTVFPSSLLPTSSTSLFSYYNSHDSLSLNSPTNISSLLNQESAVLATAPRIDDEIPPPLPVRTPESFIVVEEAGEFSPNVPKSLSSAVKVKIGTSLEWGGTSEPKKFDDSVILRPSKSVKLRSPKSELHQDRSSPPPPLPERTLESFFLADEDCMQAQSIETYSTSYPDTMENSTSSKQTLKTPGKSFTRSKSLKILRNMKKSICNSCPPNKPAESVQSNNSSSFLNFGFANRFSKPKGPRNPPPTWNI

[3] = target: T2, Estrogen receptor (Homo sapiens, UniProt P03372);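 further: potency for inhibiting coactivator peptide recruitment to the receptor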
T2 sequence (P03372 whole entry): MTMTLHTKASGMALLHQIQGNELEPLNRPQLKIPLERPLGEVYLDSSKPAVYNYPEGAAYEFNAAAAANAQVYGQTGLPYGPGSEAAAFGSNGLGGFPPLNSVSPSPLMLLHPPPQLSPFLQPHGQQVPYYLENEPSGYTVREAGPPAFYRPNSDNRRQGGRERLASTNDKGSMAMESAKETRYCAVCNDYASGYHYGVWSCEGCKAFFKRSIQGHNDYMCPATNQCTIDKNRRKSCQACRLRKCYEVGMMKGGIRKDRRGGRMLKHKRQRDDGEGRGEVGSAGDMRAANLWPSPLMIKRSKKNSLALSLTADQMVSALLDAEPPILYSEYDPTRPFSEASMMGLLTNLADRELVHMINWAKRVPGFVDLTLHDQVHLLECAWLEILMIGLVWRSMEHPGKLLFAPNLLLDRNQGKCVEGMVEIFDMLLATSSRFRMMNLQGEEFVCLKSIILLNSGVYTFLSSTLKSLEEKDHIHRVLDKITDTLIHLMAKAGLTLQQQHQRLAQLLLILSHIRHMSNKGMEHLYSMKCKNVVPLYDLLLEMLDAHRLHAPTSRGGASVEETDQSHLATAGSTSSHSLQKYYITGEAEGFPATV

[4] = target: T3, Tyrosine-protein phosphatase non-receptor type 5 (Homo sapiens, UniProt P54829); assay: STEP phosphatase inhibitors, confirmation, biochemical, fluorescence intensity, uHTS hits (AID 602372); assay type: functional; conditions: read-out: IC50_Mean
T3 sequence (P54829 whole entry): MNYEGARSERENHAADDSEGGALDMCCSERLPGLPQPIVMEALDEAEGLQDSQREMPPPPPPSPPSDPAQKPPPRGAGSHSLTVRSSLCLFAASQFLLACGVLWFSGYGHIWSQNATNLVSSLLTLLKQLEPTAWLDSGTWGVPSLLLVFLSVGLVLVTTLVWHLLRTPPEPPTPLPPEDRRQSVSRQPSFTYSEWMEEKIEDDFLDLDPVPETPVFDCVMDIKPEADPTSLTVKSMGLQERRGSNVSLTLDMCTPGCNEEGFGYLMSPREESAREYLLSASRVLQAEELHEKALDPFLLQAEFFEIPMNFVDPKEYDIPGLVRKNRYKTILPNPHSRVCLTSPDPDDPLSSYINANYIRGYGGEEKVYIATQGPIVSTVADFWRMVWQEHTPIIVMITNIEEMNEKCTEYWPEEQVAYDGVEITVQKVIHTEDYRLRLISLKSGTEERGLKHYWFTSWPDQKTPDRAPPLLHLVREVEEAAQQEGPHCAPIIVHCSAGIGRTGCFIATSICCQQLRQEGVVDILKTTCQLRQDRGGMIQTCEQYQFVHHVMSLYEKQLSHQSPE

[5] = target: DNA (cytosine-5)-methyltransferase 1 (Homo sapiens, UniProt P26358); assay: DNMT1 methyltransferase inhibitors, confirmation, biochemical, fluorescent molecular beacon (AID 602386); assay type: functional
Chain of DNA (cytosine-5)-methyltransferase 1 (P26358 whole entry): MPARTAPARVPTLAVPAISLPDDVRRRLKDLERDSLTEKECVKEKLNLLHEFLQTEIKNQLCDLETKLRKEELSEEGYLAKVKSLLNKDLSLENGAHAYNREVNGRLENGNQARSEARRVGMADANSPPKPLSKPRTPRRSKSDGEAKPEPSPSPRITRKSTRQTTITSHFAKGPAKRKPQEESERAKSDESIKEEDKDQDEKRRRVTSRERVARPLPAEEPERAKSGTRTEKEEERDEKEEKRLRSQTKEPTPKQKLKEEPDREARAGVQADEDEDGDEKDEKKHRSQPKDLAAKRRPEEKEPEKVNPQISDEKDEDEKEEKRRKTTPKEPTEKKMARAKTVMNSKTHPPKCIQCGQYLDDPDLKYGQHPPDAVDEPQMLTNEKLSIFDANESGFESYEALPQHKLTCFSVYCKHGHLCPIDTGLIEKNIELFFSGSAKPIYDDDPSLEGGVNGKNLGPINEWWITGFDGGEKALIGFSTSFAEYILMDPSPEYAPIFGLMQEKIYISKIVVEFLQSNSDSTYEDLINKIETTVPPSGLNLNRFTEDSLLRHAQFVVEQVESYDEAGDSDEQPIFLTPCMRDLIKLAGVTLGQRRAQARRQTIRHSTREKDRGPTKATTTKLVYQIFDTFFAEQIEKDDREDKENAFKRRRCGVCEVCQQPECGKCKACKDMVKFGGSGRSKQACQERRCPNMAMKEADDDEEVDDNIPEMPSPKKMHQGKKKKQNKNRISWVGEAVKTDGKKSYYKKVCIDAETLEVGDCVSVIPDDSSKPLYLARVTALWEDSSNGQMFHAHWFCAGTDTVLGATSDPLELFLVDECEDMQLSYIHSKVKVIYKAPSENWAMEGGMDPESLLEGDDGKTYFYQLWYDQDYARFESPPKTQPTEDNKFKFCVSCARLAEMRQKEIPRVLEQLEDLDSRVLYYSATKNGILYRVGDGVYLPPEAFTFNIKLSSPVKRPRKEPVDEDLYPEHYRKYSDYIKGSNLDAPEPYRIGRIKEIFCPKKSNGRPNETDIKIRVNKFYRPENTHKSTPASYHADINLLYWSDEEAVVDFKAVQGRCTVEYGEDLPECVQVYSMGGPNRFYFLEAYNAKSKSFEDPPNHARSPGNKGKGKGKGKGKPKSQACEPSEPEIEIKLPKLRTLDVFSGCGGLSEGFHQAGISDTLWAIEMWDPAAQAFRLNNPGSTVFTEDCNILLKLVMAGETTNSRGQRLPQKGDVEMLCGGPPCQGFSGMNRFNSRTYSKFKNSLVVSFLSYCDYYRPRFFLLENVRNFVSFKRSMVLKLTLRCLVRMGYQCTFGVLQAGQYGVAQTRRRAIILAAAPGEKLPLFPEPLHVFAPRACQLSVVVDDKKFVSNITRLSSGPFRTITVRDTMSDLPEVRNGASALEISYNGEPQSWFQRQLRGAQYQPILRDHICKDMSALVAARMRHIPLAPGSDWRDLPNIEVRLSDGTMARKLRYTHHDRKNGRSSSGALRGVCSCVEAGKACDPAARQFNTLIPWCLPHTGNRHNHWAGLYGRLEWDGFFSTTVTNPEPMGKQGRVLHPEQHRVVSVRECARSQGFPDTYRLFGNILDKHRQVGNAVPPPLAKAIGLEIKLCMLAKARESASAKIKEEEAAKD

[6] = target: Bcl-2-like protein 10 (Homo sapiens, UniProt Q9HD36); assay: displacers of TR3 peptide from Bcl-B, primary screen, selectivity assay for Bfl-1 inhibitor project, biochemical, fluorescence polarization, FITC-TR3 peptide (AID 748);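 further: fluorescence polarization from a fluorescein-labelled TR3 peptide binding purified Bcl-B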
Chain of Bcl-2-like protein 10 (Q9HD36 whole entry): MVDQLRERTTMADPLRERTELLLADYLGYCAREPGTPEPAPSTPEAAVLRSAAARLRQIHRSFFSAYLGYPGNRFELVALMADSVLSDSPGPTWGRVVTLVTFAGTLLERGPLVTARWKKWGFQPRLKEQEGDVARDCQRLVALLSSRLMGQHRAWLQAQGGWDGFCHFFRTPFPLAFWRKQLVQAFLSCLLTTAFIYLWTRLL

[7] = target: T4, Tyrosine-protein phosphatase non-receptor type 7 (Homo sapiens, UniProt P35236); assay: inhibitors of human HePTP phosphatase, […], biochemical, absorbance, leukemia target (AID 521); assay type: functional
T4 sequence (P35236 whole entry): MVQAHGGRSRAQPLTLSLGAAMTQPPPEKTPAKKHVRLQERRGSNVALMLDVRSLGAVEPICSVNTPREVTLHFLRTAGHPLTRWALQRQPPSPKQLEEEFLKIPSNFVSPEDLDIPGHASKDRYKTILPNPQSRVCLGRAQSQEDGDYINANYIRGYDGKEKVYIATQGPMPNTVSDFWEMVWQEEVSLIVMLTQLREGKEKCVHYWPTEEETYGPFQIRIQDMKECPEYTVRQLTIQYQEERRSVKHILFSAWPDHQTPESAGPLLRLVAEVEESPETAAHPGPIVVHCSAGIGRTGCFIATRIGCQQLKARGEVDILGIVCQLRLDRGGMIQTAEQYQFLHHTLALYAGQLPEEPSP

[8] = target: T5, Estrogen receptor beta (Homo sapiens, UniProt Q92731); assay: ERβ–SRC-3 coactivator interaction inhibitors, confirmation, orthogonal assay, biochemical, ELISA, streptavidin-HRP readout (AID 1060)
T5 sequence (Q92731 whole entry): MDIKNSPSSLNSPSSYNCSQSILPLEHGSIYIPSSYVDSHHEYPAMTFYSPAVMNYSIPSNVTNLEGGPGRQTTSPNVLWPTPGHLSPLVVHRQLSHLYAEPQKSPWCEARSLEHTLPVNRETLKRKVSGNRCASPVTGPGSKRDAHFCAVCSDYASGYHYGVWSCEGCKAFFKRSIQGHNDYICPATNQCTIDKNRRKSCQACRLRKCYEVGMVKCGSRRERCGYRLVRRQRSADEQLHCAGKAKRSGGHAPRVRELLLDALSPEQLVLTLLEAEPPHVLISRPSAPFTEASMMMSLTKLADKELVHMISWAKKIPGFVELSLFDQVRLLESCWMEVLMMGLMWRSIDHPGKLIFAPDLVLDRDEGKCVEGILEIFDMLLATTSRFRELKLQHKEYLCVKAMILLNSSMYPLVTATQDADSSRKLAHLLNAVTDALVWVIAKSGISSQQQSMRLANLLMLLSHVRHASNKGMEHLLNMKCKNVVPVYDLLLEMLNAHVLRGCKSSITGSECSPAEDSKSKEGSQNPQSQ

[9] = target: Dual specificity protein phosphatase 3 (Homo sapiens, UniProt P51452); assay: VHR phosphatase inhibition, dose response, selectivity assay for STEP inhibitor project, biochemical (AID 602374); assay type: functional; conditions: read-out: IC50_Mean
Chain of Dual specificity protein phosphatase 3 (P51452 whole entry): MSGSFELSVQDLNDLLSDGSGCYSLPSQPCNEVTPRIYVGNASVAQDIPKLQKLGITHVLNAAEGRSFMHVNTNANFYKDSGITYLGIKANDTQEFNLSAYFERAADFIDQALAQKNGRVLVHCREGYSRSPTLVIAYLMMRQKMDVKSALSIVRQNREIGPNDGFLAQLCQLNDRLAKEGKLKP

[10] = target: T5, Estrogen receptor beta
[11] = target: T6, Tyrosine-protein phosphatase non-receptor type 11 (Homo sapiens, UniProt Q06124); assay: SHP2 phosphatase inhibition, dose response, selectivity assay for STEP inhibitor project, biochemical (AID 602367); assay type: functional; conditions: read-out: IC50_Mean
T6 sequence (Q06124 whole entry): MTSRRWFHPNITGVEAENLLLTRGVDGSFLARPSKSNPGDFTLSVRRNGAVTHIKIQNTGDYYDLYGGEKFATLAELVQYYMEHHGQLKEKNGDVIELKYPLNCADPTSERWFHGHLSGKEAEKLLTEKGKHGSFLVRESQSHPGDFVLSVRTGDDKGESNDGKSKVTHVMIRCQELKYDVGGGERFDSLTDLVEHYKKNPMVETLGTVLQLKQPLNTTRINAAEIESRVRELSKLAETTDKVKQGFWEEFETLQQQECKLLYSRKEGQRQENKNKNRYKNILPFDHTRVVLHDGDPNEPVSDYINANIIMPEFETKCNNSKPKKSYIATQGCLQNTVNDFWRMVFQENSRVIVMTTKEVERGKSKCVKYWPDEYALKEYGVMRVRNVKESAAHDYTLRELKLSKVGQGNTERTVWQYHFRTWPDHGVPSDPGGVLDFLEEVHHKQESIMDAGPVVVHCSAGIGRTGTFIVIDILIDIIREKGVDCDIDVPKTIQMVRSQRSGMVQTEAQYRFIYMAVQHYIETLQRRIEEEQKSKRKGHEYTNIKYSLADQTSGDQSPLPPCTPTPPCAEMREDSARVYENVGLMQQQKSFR

[12] = inhibitors of Vif binding to APOBEC3G peptide, primary screen, biochemical, TR-FRET, GST-Vif 1-94, biotin-A3G peptide, dose response retest (AID 1117319); assay type: functional;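 further: TR-FRET signal of purified GST-Vif binding a biotinylated A3G peptide; inhibitors lower the FRET signal by blocking Vif and A3G binding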
[13] = target: ADP-ribosylation factor GTPase-activating protein 1 (Rattus norvegicus, UniProt Q62848); assay: Fluorescence polarization-based biochemical high throughput dose response screening assay to identify inhibitors of ADP-ribosylation factor GTPase activating protein 1 (ARFGAP1).; assay type: functional
Chain of ADP-ribosylation factor GTPase-activating protein 1 (Q62848 whole entry, the tested form may be a part): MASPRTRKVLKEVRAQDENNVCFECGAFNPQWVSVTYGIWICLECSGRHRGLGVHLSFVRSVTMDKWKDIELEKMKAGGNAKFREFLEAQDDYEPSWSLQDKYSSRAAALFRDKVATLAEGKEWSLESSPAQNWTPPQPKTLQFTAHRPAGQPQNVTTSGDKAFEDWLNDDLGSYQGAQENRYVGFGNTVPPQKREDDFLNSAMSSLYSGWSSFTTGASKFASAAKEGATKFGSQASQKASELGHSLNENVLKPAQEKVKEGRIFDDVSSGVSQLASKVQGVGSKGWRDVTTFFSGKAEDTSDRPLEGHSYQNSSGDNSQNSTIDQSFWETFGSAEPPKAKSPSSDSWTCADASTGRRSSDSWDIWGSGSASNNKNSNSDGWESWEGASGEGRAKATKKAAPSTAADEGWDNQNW

[14] = target: Arf-GAP with SH3 domain, ANK repeat and PH domain-containing protein 1 (Homo sapiens, UniProt Q9ULH1); assay type: functional;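 further: biochemical fluorescence polarization dose–response screen measuring inhibition of ASAP1; ASAP1 GAP domain stimulating GTP hydrolysis by truncated human ARF1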
Chain of Arf-GAP with SH3 domain, ANK repeat and PH domain-containing protein 1 (Q9ULH1 whole entry, the tested form may be a part): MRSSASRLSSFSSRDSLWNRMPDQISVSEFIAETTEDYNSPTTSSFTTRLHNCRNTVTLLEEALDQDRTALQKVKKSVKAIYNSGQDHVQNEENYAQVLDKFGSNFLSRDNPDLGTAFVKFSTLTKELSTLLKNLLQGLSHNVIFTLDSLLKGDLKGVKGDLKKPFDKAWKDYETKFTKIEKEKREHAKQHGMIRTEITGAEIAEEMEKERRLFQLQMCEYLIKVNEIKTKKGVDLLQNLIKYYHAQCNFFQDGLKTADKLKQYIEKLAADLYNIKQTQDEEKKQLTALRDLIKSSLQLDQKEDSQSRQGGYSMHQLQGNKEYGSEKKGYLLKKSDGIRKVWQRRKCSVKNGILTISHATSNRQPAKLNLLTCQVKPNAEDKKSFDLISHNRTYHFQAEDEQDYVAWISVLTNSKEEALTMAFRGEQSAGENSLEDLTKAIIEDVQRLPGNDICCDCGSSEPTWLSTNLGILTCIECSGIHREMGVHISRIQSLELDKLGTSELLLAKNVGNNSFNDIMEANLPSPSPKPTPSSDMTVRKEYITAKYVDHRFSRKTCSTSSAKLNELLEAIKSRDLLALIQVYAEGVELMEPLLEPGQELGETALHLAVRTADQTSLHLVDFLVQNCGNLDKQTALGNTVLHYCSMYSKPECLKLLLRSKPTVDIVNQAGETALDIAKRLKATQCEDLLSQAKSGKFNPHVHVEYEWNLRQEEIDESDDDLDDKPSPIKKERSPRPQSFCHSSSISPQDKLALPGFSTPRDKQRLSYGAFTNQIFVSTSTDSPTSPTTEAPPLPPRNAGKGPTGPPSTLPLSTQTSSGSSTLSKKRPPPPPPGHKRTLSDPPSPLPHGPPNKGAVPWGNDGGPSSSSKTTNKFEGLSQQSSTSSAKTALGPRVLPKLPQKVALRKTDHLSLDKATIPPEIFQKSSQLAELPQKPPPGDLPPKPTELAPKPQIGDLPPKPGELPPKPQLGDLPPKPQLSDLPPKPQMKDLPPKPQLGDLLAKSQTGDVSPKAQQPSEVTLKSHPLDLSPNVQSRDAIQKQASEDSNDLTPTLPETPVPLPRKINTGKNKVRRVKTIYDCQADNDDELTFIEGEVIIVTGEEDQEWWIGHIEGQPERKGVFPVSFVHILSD

Chain of Broad substrate specificity ATP-binding cassette transporter ABCG2 (Q9UNQ0 whole entry): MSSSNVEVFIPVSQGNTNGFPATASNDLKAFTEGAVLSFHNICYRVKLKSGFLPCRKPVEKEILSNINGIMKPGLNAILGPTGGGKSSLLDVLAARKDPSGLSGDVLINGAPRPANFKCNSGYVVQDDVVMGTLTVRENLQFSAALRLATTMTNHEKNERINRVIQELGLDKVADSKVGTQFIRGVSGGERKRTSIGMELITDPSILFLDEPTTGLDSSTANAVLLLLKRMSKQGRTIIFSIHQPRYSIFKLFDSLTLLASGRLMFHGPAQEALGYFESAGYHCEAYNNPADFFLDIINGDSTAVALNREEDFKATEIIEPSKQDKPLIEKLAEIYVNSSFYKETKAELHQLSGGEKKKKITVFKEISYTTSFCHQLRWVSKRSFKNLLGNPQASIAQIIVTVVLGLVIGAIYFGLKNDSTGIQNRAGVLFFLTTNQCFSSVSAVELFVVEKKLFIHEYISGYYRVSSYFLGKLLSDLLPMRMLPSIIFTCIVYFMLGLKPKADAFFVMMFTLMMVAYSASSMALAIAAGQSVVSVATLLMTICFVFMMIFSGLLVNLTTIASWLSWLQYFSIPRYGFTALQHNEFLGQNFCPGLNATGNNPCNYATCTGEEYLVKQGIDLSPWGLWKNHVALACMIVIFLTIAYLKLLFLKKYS

EC50 [1]: 1.32 µM (inactive)
SMILES: COc1cc(C(=O)Nc2ccc(S(=O)(=O)NC(C)C)cc2)cc(OC)c1OC

IC50 [2]: > 100 µM (inactive)
IC50 [3]: 9.78 µM (active)
IC50 [4]: 24.4 µM (inactive)
IC50 [5]: 4.35 µM (active)
IC50 [6]: 14.9 µM (active)
IC50 [7]: 8.25 µM (active)
IC50 [8]: > 50 µM (not active)
IC50 [9]: 0.833 µM (active)
IC50 [10]: 2.49 µM (active)
IC50 [11]: 0.469 µM (active)
IC50 [12]: > 100 µM (active)
SMILES: COc1ccc(OC)c(N2C(=O)[C@@H]3C(c4ccccc4Cl)=NO[C@@H]3C2=O)c1

IC50 [13]: 10.7 µM (inactive)
IC50 [14]: 20.9 µM (inactive)
SMILES: Cc1ccc2nc(SCC(=O)N3CC(C)OC(C)C3)nc(=O)n2c1 (centres undefined)
